Laboratory results as given in US9212204B2, “Treatment of rett syndrome using glycyl-L-2-methylprolyl-L-glutamic acid” (priority 2011, dated 2015).
Non-standard residues stand in square brackets, D forms with d. Residues, ends and D or L forms follow the SMILES beside them. αMeP = C[C@@]1(C(=O)O)CCCN1

Legend:
MeCP2-/y mice = test: Heart rate measurements; type: in vivo, mouse; conditions: 8 weeks old, treated from P15
Protocol: Real time cardiac pulse rate is measured using a tail clip sensor (Mouse OX Oximeter—Oakmont, Pa.). Mice are not anesthetized but physically restrained in a fitted open plastic tube. Prior to the recording session the tube is placed overnight in the cages housing the experimental animals to allow habituation. Body temperature is maintained at ˜82-84° F. throughout the recording time. We record 3 trials of 15 minutes for each mouse, mice are 8 weeks old and treated with vehicle or G-2-MePE from P15.
To examine heart rate abnormalities in MeCP2−/y mice and the effect of G-2-MePE treatment, we monitor real time cardiac pulse rate in non-anesthetized wild type and MeCP2−/y animals treated with vehicle or G-2-MePE.

[1] = system: subjects with an Autism Spectrum Disorder; test: Placebo-controlled crossover study in subjects with an Autism Spectrum Disorder; type: in vivo, human
Source text: To determine whether G-2-MePE can treat symptoms of ASD, we carry out a study in human beings with ASD. Twenty subjects with an Autism Spectrum Disorder are recruited. Subjects are male and aged between 16 and 65 years (Mean=18.1 SD=3.4). All subjects have an IQ >60 and strict DSM-IV-TR diagnosis of Autistic Disorder or Asperger Disorder, Subjects also meet criteria for an Autism Spectrum Disorder according the ADI-R and ADOS-G instruments, and fulfill the proposed DSM-V criteria for and Autism Spectrum Disorder. Subjects are instructed that concomitant medications are to be stable for at least six weeks prior to study. Subjects receiving medication to treat signs of inattention are tested in the morning and instructed to take their medication in the afternoon. Subjects better treated with atypical anti-psychotic medications indicated for autism are excluded. Subjects are screened for known genetic disorders including and those with Fragile X Syndrome or tuberous sclerosis excluded. Subjects with uncontrolled epilepsy are excluded.
The study is a double blind placebo-controlled crossover study with three phases. Subjects enter each phase of the crossover in a randomized order. In the test phases, subjects receive either placebo, 10 mg/kg T.I.D oral G-2-MePE for five days, or 30 mg/kg T.I.D. oral G-2-MePE. Each phase of the crossover is separated by a washout period of fourteen days.
Subjects are tested at baseline using the following instruments: Wechsler IQ, Abberant Behavior Checklist Community Edition (ABC), Vinelands, Yale-Brown Obsessive Compulsive Scale (YBOCS) compulsion subscale, Social Responsiveness Scale (SRS), Clinical Global Impression of Severity (CGI-S) and their carers complete the Caregiver Strain Questionnaire (CSQ).
Subjects are administered two tasks—the Reading the Mind in the Eyes Test—Revised (RMET) and an Eye Tracking (ET) task, as well as Clinical Global Impression of Improvement (CGI-1). Tasks commence two hours following administration of placebo or either dose of G-2-MePE. The RMET is a computer based task that assesses one's ability to read emotions from the eyes of subtle affective facial expressions and is a widely used test of emotion recognition in patients with autism (2001). Importantly, the RMET is capable of detecting improvement with even a single dose of a pharmacological agent (Guastella et al., 2010). Eye tracking issues are characteristic of patients with autism who spend less time looking at the eyes of photographs of human faces. Again, a single administration of a pharmacologic intervention can ameliorate eye tracking deficits in autism (Andari et al, 2010).
Adverse events are also recorded using standard safety measures.
Statistically, the effect of treatment with G-2-MePE is analysed by conducting a repeated analysis of covariance (ANCOVA) on the effect of treatment on change from baseline scores.

[2] = Pharmacokinetics after intravenous bolus injection; type: in vivo, rat
Protocol: Adult male Wistar rats weighing between 180 and 240 g were used to determine the pharmacokinetics of GPE and […]. To facilitate intravenous bolus injections and blood sampling, all rats were surgically implanted with an indwelling jugular venous cannula under halothane anesthesia three days before the experiment. Groups of six rats were given a single intravenous bolus injection of either 30 mg/kg GPE or 10 mg/kg […] dissolved in 0.1M succinate buffer (pH 6.5). […] The samples were centrifuged at 3000 g for 15 min at 4° C. and the plasma removed and stored at -80° C. until extraction and assay by either radioimmunoassay (“RIA”) or reverse phase HPLC. The RIA and HPLC methods used were conventional. […] The k and half-life (t1/2) were calculated from the slope of the linear regression line in the elimination phase of the semi-logarithmic plot of plasma concentration versus time as: Log. C=-kt/2.3+log C0. Results were expressed as mean±standard error.

MeCP2 knockout mice = test: Nocturnal activity measurements; type: in vivo, mouse; conditions: 20 mg/kg i.p. daily; after 6 weeks
Protocol: For the survival measurements, the nocturnal activity analysis and the immunoblot analysis, G-2-MePE (synthesised Albany Molecular Research Inc. (Albany, N.Y.) and supplied by Neuren Pharmaceuticals Limited) is administered daily via intra-peritoneal injections (20 mg/kg, vehicle=saline, 0.01% BSA). The treatment starts at PI 5 and is maintained throughout the course of the experiments. For intracellular physiology experiments, the mice are injected daily with G-2-MePE (20 mg/kg body weight, vehicle=saline, 0.01% BSA) for 2 weeks, from P15 to P28-P32 when they are used for acute slice preparation. For optical imaging experiments, mice are injected with G-2-MePE (20 mg/kg body weight, vehicle=saline, 0.01% BSA) daily from the day of the lid suture to the day of imaging.
Spontaneous motor activity is measured by using an infrared beam-activated movement-monitoring chamber (Opto-Varimax-MiniA; Columbus Instruments, Columbus, Ohio). […] Movement is monitored during the normal 12-h dark cycle (7 p.m. to 7 a.m.). […]
MeCP2−/y mice develop Rett-like symptoms beginning at 4-6 weeks of age when they progressively become lethargic, develop gait ataxia and die between 10 and 12 weeks of age (Chen et al., 2001). Baseline locomotor activity is also recorded in mice after 6 weeks by counting nocturnal infrared beam crossing events within a caged area.

Q: Which “occurrence of irregular heart rate with a lower average rate” value (MeCP2-/y mice) does the source give for `C[C@@]1(C(=O)N[C@@H](CCC(=O)O)C(=O)O)CCCN1C(=O)CN` [Example G-2-MePE, Glycyl-L-2-methylprolyl-L-glutamic acid] (H-Gly-[αMeP]-Glu-OH) here?
A: Its value is “significantly reduced”.

Q: And the “percent correct responses on the RMET” value ([1]; 30 mg/kg T.I.D. oral)?
A: The value was “increases”.

Q: What about the “Serious Adverse Events” value ([1]; 10 or 30 mg/kg T.I.D. oral) of the same compound?
A: The value was “No Serious Adverse Events”.

Q: What about the adverse events ([1]; 10 or 30 mg/kg T.I.D. oral, vs placebo) of the same compound?
A: The adverse events was “no more adverse events than were present during treatment with placebo”.

Q: And the tolerability ([1]; ASD population)?
A: The tolerability was “well tolerated”.

Q: And the “performance of the RMET test” value ([1]; overall treatment effect)?
A: Its value is “significant overall improvement”.

Q: And the “time spent looking at the eye region in the ET test” value ([1]; overall treatment effect)?
A: Its value is “significant overall improvement”.

Q: And the first order rate constant ([2]; 10 mg/kg single i.v. bolus, rat)?
A: The first order rate constant was 0.033 ± 0.001 min⁻¹.

Q: And the “maximal plasma concentration relative to GPE” value ([2]; G-2-MePE 10 mg/kg vs GPE 30 mg/kg i.v.)?
A: Its value is “about 4.8 times”.

Q: And the “t1/2 relative to GPE” value ([2]; i.v., rat)?
A: The value was “over 4 times”.

Q: And the “locomotor activity levels (nocturnal infrared beam crossing)” value (MeCP2 knockout mice)?
A: Its value is “elevates”.
